Data as given in patent publication US20030055065A1, “Tricyclic amide and urea compounds useful for inhibition of G-protein function and for treatment of proliferative diseases” (priority 1993, published 2003).
Values joined by “and” are separate entries in the source; they are usually repeats but may differ in a detail not shown here. Equal entries are not always repeated. Where two headings read alike, the source gives them in different places.

How the values were obtained:
[1] = test system: Ras-CVLS processing in COS monkey kidney cells; test: COS cell assay: Ras-CVLS processing (Western blot); format: cell-based; conditions: COS cells; for IC50: read-out: Inhibition of Ras Processing IC50
Description: 2. […] Effect of farnesyl protein transferase inhibitors on Ras processing and on disordered cell growth induced by transforming Ras. COS monkey kidney cells were transfected by electroporation with the plasmid pSV-SPORT (Gibco/BRL) containing a cDNA insert encoding either Ras-CVLS or Ras-CVLL, leading to transient overexpression of a Ras substrate for either farnesyl protein transferase or geranylgeranyl protein transferase I, respectively (see above). […] After 24 hours, media was removed and fresh media containing the appropriate drugs was re-added. 48 hours after electroporation cells were examined under the microscope to monitor disordered cell growth induced by transforming Ras. Cells expressing transforming Ras become more rounded and refractile and overgrow the monolayer, reminiscent of the transformed phenotype. […] Cells were lysed by homogenization and cell debris was removed by centrifugation at 2000×g for 10 min. Cellular protein was precipitated by addition of ice-cold trichloroacetic acid and redissolved in 100 μl of SDS-electrophoresis sample buffer. […] Proteins resolved on the gels were electroblotted onto nitrocellulose membranes for immunodetection. […] E., et al., (1982), Monoclonal antibodies to the p21 products of the transforming gene of Harvey murine sarcome virus and of the cellular ras gene family, J. Virol. 43: 294-304), in PBS containing 1% fetal calf serum for one hour at room temperature. After washing, membranes were incubated for one hour at room temperature with a 1:5000 dilution of secondary antibody, rabbit anti-rat IgG conjugated to horseradish peroxidase, in PBS containing 1% fetal calf serum.

[2] = target: T1, farnesyl protein transferase (FPT), partially purified from rat brain (Rattus norvegicus, UniProt Q02293+Q04631); test: Inhibition of farnesyl protein transferase (transfer of [3H]farnesyl to Ras-CVLS); format: biochemical
T1 construct: were partially purified from rat brain by ammonium sulfate fractionation followed by Q-Sepharose
T1 sequence (Q02293 whole entry, one chain of several): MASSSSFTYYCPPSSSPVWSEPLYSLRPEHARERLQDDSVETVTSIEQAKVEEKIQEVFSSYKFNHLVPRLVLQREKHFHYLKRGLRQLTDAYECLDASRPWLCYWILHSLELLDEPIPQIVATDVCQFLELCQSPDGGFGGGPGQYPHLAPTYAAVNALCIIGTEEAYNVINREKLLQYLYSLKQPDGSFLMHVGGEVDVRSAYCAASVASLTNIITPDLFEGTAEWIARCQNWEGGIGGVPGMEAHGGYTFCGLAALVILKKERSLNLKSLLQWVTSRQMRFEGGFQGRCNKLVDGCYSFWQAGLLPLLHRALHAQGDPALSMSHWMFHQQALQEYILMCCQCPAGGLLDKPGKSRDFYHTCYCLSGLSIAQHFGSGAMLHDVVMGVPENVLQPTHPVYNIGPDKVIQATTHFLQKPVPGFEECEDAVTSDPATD
In short: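 Partially purified farnesyl protein transferase with His6-tagged val12-Ha-Ras-CVLS substrate and [3H]farnesyl pyrophosphate, 30 min at room temperature. Stopped with SDS/TCA, precipitated Ras collected on GF/C filters; percent inhibition relative to DMSO vehicle control.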

[3] = test system: Normal human HEPM fibroblasts; test: Cell Mat Assay: density of mat cells (mIC50); format: cell-based
Description: (§1) Compound-induced colony inhibition was assayed by addition of serial dilutions of compound directly to the growth medium 24 h after tumor cell planting, and incubating cells for an additional 14 d to allow colony formation. Assays were terminated by rinsing monolayers twice with phosphate-buffered saline (PBS), fixing the monolayers with a 1% glutaraldehyde solution in PBS, then visualizing tumor cells by staining with X-Gal (Price, J., et al., Lineage analysis in the vertebrate nervous system by retrovirus-mediated gene transfer, Proc. Natl. Acad. Sci.84, 156-160(1987)). […] Both IC50 values were obtained by determining the density of tumor cells and mat cells by visual inspection and enumeration of cells per colony and the number of colonies under the microscope.

[4] = test system: T24-BAG4 human bladder carcinoma cells expressing an activated H-ras gene; test: Cell Mat Assay: tumor cell colony inhibition (tIC50); format: cell-based; conditions: inhibition of tumor cell growth
Description: as §1

[5] = Ras-CVLS farnesylation, partially purified rat brain FPT, read-out: FPT IC50
[6] = FPT IC50, Ras-CVLS farnesylation, partially purified rat brain FPT
[7] = enzyme inhibition, read-out: FPT IC50

Compound | IC50 ([1]; Primates, COS) | IC50 [2, 5] | IC50 ([3]; Homo sapiens, Fibroblast) | IC50 ([4]; Homo sapiens) | also measured
O=C(Cc1ccc[n+]([O-])c1)N1CCN(C2c3ccc(Cl)cc3CCc3ccc[n+]([O-])c32)CC1 (stereo not shown) [185 (5.61)] | > 20 µM | 3.8 µM | – | – | –
O=C(N[C@@H](Cc1ccc(O)cc1)C(=O)N1CCC(=C2c3ccc(Cl)cc3CCc3cccnc32)CC1)OCc1ccccc1 [Example 46] | – | 1.2 µM | – | – | IC50 [3]: > 50 µM; IC50 [1]: > 8 µM
O=C(Cc1cccnc1)N1CCN(C2c3ccc(Cl)cc3CCc3cccnc32)CC1 (stereo not shown) [Example 78] | < 4.6 µM | – | – | – | IC50 [2, 6]: 1 µM and 0.42 µM; IC50 ([2]; FPT IC50, enzyme inhibition): 2.19 µM and 0.53 µM and 0.74 µM and 0.76 µM and 0.97 µM
CS(=O)(=O)OCC(C(=O)N1CCC(=C2c3ccc(Cl)cc3CCc3cccnc32)CC1)c1ccccc1 (stereo not shown) [Example 83, 8-chloro-11-[1-(2-methanesulfonyl-oxy-1-phenylethylcarbonyl)-4-piperidylidene]-6,11-dihydro-5H-benzo-[5,6]cyclohepta-[1,2-b]pyridine] | 7.4 µM | 0.59 µM | – | – | –
CC(=O)SCC(C(=O)N1CCC(=C2c3ccc(Cl)cc3CCc3cccnc32)CC1)c1ccccc1 (stereo not shown) [Example 84] | > 9.7 µM | 0.29 µM | – | – | –
O=C(CN1C(=O)c2ccccc2S1(=O)=O)N1CCC(=C2c3ccc(Cl)cc3CCc3cccnc32)CC1 [Example 85] | > 37.4 µM | 2 µM | – | – | –
O=C(C1CCCC1)N1CCC(=C2c3ccc(Cl)cc3CCc3cccnc32)CC1 [Example 157] | 4.5 µM | – | – | – | –
CC(C)(C)OC(=O)NCC(=O)N1CCN(C2c3ccc(Cl)cc3CCc3cccnc32)CC1 (stereo not shown) [Example 208] | – | 4.8 µM | > 50 µM | > 50 µM | –
O=C(Cc1ccccc1)NCC(=O)N1CCN(C2c3ccc(Cl)cc3CCc3cccnc32)CC1 (stereo not shown) [Example 209] | – | 7.92 µM | > 50 µM | 25 µM | –
O=C(Cc1cccc(O)c1)NCC(=O)N1CCN(C2c3ccc(Cl)cc3CCc3cccnc32)CC1 (stereo not shown) [Example 211] | – | 8.17 µM | > 50 µM | 37 µM | –
O=C(Cc1ccccc1O)NCC(=O)N1CCN(C2c3ccc(Cl)cc3CCc3cccnc32)CC1 (stereo not shown) [Example 212] | – | 7.92 µM | 37 µM | 25 µM | –
O=C(CCc1ccccc1)NCC(=O)N1CCN(C2c3ccc(Cl)cc3CCc3cccnc32)CC1 (stereo not shown) [Example 217] | – | 6.75 µM | 50 µM | 37 µM | –
O=C(CCc1ccc(O)cc1)NCC(=O)N1CCN(C2c3ccc(Cl)cc3CCc3cccnc32)CC1 (stereo not shown) [Example 218] | – | 9.92 µM | 50 µM | 37 µM | –
O=C(Cc1cccnc1)N1CCC(=C2c3ccc(Cl)cc3CCc3ccc[n+]([O-])c32)CC1 [Example 229] | – | 4.38 µM | > 50 µM | 37 µM | –
O=C(Cc1ccc[n+]([O-])c1)N1CCC(C2c3ccc(Cl)cc3CCc3ccc[n+]([O-])c32)CC1 (stereo not shown) [Example 237] | – | – | > 50 µM | > 50 µM | inhibition at 4 µM ([2]; at 4 μM): 18%
O=C(Nc1cccnc1)N1CCC(=C2c3ccc(Cl)cc3CCc3c(Cl)ccnc32)CC1 [Example 261] | 9.1 µM | 1.3 µM | – | – | –
O=C(Nc1cccnc1)N1CCC(C2c3ccc(Cl)cc3C=Cc3cccnc32)CC1 (stereo not shown) [Example 267] | 12.5 µM | 1.33 µM | – | – | –
O=C(Nc1cccnc1)N1CCC(C2c3ccc(Cl)cc3C=Cc3c(Cl)ccnc32)CC1 (stereo not shown) [Example 274] | 8 µM | 0.91 µM and 1.38 µM | – | – | –

Compound | IC50 ([1]; Primates, COS) | IC50 [2, 5] | IC50 ([3]; Homo sapiens, Fibroblast) | IC50 ([4]; Homo sapiens) | also measured
CC(C)(C(=O)N1CCC(=C2c3ccc(Cl)cc3C=Cc3cccnc32)CC1)c1cccnc1 [Example 278] | 2.6 µM | 0.88 µM | – | – | –
O=C(C(=O)N1CCC(=C2c3ccc(Cl)cc3CCc3cccnc32)CC1)c1ccc([N+](=O)[O-])cc1 [Example 295] | 20.8 µM | 2.4 µM | – | – | –
CN(C)c1ccc(CC(=O)N2CCC(=C3c4ccc(Cl)cc4CCc4cccnc43)CC2)cc1 [Example 297] | – | 2.71 µM | > 50 µM | > 50 µM | –
CC(C)(C)c1cnc2c(c1)CCc1cc(Cl)ccc1C2=C1CCN(C(=O)Cc2ccncc2)CC1 [Example 305] | – | – | – | – | IC50 [3]: > 50 µM; FPT inhibition ([2]; at 4 μM): 40% @4 μM; IC50 [4]: 25 µM
O=C(Cc1ccncc1)N1CCC(=C2c3ccc(Cl)cc3C=Cc3cccnc32)CC1 [Example 307] | – | 0.22 µM and 0.14 µM | – | – | IC50 [3]: 50 µM; IC50 [4]: 12.5 µM
O=C(Cc1ccncc1)N1CCC(=C2c3cc(F)ccc3CCc3cccnc32)CC1 [Example 310] | – | 3.6 µM | – | – | IC50 [3]: > 50 µM; IC50 [4]: 25 µM
O=C(NCc1ccccc1)N1CCC(C2c3ccc(Cl)cc3CCc3cccnc32)CC1 (stereo not shown) [Example 318] | – | 4.1 µM | 37 µM | 37 µM | –
O=C(Cc1ccc(O)c(O)c1)N1CCC(C2c3ccc(Cl)cc3CCc3cccnc32)CC1 (stereo not shown) [Example 321] | – | 6 µM | > 50 µM | 6.25 µM | –
O=C(Cc1cccnc1)N1CCN(C2c3ccc(Cl)cc3CCc3c(Cl)ccnc32)CC1 (stereo not shown) [Example 355] | – | – | > 25 µM | 8 µM | IC50 [2, 6]: 0.88 µM
Nc1cnc2c(c1)C=Cc1cc(Cl)ccc1C2C1CCN(C(=O)Cc2ccncc2)CC1 (stereo not shown) [Example 402-A] | – | – | > 25 µM | 3.1 µM | IC50 ([2]; FPT IC50, enzyme inhibition): 0.45 µM and 0.56 µM
Nc1cc2c(nc1Br)C(=C1CCN(C(=O)Cc3ccncc3)CC1)c1ccc(Cl)cc1CC2 [Example 405] | – | – | > 25 µM | 12.5 µM | IC50 [2, 7]: 1.3 µM
CC(C)(C(=O)N1CCC(=C2c3ccc(Cl)cc3CCc3cccnc32)CC1)c1cc[n+]([O-])cc1 [Example 411-E] | – | – | > 25 µM | > 25 µM | IC50 [2, 7]: 1.14 µM
O=C(Cc1cc[n+]([O-])cc1)N1CCN(C2c3ccc(Cl)cc3CCc3cccnc32)CC1 (stereo not shown) [Example 425-B] | – | – | > 25 µM | 12.5 µM | IC50 [2, 7]: 0.74 µM
O=C(Cc1cc[n+]([O-])cc1)N1CCN(C2c3ccc(Cl)cc3CCc3cc(Br)cnc32)CC1 (stereo not shown) [Example 425-H] | – | – | > 25 µM | < 1.6 µM | IC50 ([2]; FPT IC50, enzyme inhibition): 0.059 µM and 0.049 µM and 0.075 µM
O=C(Cc1ccc[n+]([O-])c1)N1CCN(C2c3ccc(Cl)cc3CCc3cc(Br)cnc32)CC1 (stereo not shown) [Example 425-K] | – | – | > 25 µM | 6.25 µM | IC50 ([2]; FPT IC50, enzyme inhibition): 0.4 µM and 0.41 µM
CN1CCC(CC(=O)N2CCN(C3c4ccc(Cl)cc4CCc4cc(Br)cnc43)CC2)CC1 (stereo not shown) [Example 425-O] | – | – | 6.25 µM | – | Toxicity in COS cells at the concentration in parentheses ([1]; (10) μM): tox (10); IC50 [2, 7]: 0.17 µM and 0.14 µM and 0.122 µM and 0.118 µM and 0.178 µM
CC(C)(C(=O)N1CCN(C2c3ccc(Cl)cc3CCc3cccnc32)CC1)c1ccncc1 (stereo not shown) [Example 425] | – | – | > 25 µM | 12.5 µM | IC50 [2, 7]: 1.74 µM
Cc1ccc2c(c1)CCc1cccnc1C2=C1CCN(C(=O)Cc2ccncc2)CC1 [Example 434] | < 5 µM | – | – | – | FPT inhibition at the concentration in parentheses ([2]; (0.48) μM): 70 (0.48); IC50 [2, 7]: 0.26 µM
